The values that follow come from ChEMBL document CHEMBL4052588, “Design of a Biased Potent Small Molecule Inhibitor of the Bromodomain and PHD Finger-Containing (BRPF) Proteins Suitable for Cellular and in Vivo Studies” (J Med Chem, 2017).

Molecules are shown by their SMILES.

A word on the fraction unbound: it is the share of the substance not bound to proteins or other matrix. A higher fraction unbound goes with weak binding. One may read the IC50 as the concentration at which inhibition is half-maximal. A higher IC50 goes with weaker potency in that assay. The Kd is the constant that tells how readily two partners part at equilibrium. The low end stands for higher affinity, the high end for lower affinity. As usually defined, the Papp B→A is the apparent permeability from the basolateral to the apical side of a cell layer. The term GI50 denotes the concentration giving 50% growth inhibition. The low end stands for greater sensitivity of the cells, the high end for lower sensitivity of the cells.

Data set [1] in a line: Fraction unbound in mouse plasma. It is filed as ADME, cell-free.
For data set [2], the target named is T1, Bromodomain-containing protein 1 (Homo sapiens, UniProt O95696).
T1 sequence (O95696 whole entry): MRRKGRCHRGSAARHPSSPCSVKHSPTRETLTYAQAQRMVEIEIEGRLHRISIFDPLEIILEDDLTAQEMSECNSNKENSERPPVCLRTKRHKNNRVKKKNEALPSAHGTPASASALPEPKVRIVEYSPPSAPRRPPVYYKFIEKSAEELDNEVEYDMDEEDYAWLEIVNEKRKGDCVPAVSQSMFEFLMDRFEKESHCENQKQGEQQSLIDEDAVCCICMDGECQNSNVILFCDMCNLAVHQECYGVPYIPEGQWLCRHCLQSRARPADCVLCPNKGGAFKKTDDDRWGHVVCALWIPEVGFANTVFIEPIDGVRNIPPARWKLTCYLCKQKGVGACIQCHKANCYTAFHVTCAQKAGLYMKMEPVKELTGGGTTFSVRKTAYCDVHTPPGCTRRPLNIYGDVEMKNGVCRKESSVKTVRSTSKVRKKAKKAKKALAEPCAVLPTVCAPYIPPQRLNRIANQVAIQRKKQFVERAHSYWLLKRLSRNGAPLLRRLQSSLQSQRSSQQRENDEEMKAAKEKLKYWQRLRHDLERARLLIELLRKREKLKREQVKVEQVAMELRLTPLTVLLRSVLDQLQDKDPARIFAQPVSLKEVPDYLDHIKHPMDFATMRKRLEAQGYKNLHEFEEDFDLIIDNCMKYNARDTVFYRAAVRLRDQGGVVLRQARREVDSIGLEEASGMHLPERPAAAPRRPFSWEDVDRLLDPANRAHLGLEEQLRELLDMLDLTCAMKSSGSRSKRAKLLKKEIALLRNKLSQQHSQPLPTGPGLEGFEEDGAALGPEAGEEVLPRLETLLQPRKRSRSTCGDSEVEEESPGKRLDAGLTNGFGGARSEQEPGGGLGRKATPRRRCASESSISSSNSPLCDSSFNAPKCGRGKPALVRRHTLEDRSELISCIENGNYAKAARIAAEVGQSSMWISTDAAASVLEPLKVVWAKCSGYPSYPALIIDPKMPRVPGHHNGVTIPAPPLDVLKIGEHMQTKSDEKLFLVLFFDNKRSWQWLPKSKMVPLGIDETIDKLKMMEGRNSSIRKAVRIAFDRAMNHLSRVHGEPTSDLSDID
In words: Inhibition of human His tagged BRPF2 incubated for 30 mins followed by addition of biotinylated peptide and further incubation for 30 mins measured by AlphaScreen assay. A general note: Bead proximity is the source of the signal in Alpha formats.

Data set [3] deals with T1, Bromodomain-containing protein 1. In words: Binding affinity to human BRPF2 by isothermal titration calorimetry.
In data set [4] the target is T2, Bromodomain-containing protein 9 (Homo sapiens, UniProt Q9H8M2).
T2 sequence (Q9H8M2 whole entry): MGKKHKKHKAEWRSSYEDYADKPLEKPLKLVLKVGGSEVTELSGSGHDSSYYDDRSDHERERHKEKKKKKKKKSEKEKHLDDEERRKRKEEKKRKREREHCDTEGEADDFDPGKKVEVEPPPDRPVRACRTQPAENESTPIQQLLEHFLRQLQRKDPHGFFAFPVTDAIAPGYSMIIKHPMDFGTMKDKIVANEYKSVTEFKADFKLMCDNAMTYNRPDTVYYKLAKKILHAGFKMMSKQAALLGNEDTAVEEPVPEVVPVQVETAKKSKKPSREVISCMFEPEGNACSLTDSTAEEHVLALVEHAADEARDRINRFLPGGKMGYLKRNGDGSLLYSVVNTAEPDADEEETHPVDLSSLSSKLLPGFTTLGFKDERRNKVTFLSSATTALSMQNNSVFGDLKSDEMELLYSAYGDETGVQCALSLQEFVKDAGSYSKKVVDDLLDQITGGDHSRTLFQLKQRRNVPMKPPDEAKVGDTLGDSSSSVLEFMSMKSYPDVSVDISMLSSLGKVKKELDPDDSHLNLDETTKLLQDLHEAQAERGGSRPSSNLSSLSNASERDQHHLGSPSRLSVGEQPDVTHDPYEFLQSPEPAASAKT
Nature of the data set: Binding affinity to human BRD9 by isothermal titration calorimetry. Background: Isothermal titration calorimetry measures the heat released or taken up as one component is titrated into another.

Data set [5] can be described thus: Apparent permeability from basolateral to apical side in human Caco2 cells at 10 uM after 2 hrs by LC-MS/MS analysis. It is filed as ADME, cell-based. Conditions: Caco-2.
Data set [6] in a line: Growth inhibition of human QGP1 cells after 72 hrs. The note with it: QGP-1, 72 h. It is filed as functional.
Another data set deals with NUGC-4. In words: Growth inhibition of human NUGC4 cells after 72 hrs. It is filed as functional. Conditions: NUGC-4, 72 h.
For a further data set, the system named is AGS. In words: Growth inhibition of human AGS cells after 72 hrs. It is filed as functional.
Data set [7] in a line: Growth inhibition of human C99 cells after 72 hrs. It is filed as functional. The note with it: C99, 72 h.

In data set [1], `Cc1cc2cc(NS(=O)(=O)c3ccc(C#N)cc3)ccc2n(C)c1=O` showed a fraction unbound of 0.03. This compound also registered a half-inhibitory concentration (IC50) in data set [2] of 760 nM. Moreover, the equilibrium dissociation constant (Kd) was determined as 210 nM in data set [3] and 1130 nM in data set [4]. The Papp B→A at 2 h, 10 µM in [5] was found to be 50 ×10⁻⁶ cm/s. Further, the GI50 (in data set [6]; in the data set with NUGC-4; in the data set with AGS; in data set [7]) was 1000 to 10000 nM in each case.
